Source: the OligoGym collection
Several values for one entry are separate records, joined by “and”; a condition that tells them apart may be missing. Equal values may be shown once. After the bases stand the sugars from the 5' end (letter, count) and the backbone: PS all phosphorothioate, else s phosphorothioate and o phosphodiester by linkage. Methylation of C is not given here. k = constrained ethyl (cEt); d = 2'-deoxy (DNA)

Target: MALAT1
Conditions: ASO, A431, 0.005 µM

## AGTCACTGGATAAGTA (sugars k3 d10 k3, PS)
  target mRNA inhibition: 41%

## AGTCCAATGCAAAAAC (sugars k3 d10 k3, PS)
  target mRNA inhibition: 23%

## AGTGTAAAACATTGCC (sugars k3 d10 k3, PS)
  target mRNA inhibition: 7%

## AGTTAATGTCAGCCCA (sugars k3 d10 k3, PS)
  target mRNA inhibition: 34%

## AGTTACATGTTCCCAC (sugars k3 d10 k3, PS)
  target mRNA inhibition: 33%

## AGTTATATTAGGTTCT (sugars k3 d10 k3, PS)
  target mRNA inhibition: 22%

## AGTTGGTAATTACTCT (sugars k3 d10 k3, PS)
  target mRNA inhibition: 40%

## AGTTTATCTGCAATCA (sugars k3 d10 k3, PS)
  target mRNA inhibition: 46% and 59%

## AGTTTGCTCACATGCC (sugars k3 d10 k3, PS)
  target mRNA inhibition: 65% and 53%

## ATAACTGATCTGACTT (sugars k3 d10 k3, PS)
  target mRNA inhibition: -5%

## ATAAGCACTTATCCCT (sugars k3 d10 k3, PS)
  target mRNA inhibition: 50%

## ATAAGGTCAATAGTGT (sugars k3 d10 k3, PS)
  target mRNA inhibition: 38%

## ATACATCAAGGATGTA (sugars k3 d10 k3, PS)
  target mRNA inhibition: 19%

## ATACTGAAAACTCCCC (sugars k3 d10 k3, PS)
  target mRNA inhibition: 14%

## ATACTTCTCCAATACT (sugars k3 d10 k3, PS)
  target mRNA inhibition: -15%

## ATATAAGGTCAATAGT (sugars k3 d10 k3, PS)
  target mRNA inhibition: 16%

## ATATCTTAGTAACCTA (sugars k3 d10 k3, PS)
  target mRNA inhibition: 15%

## ATATTTAACTTCCCCC (sugars k3 d10 k3, PS)
  target mRNA inhibition: 30%

## ATATTTTAAACGGGTC (sugars k3 d10 k3, PS)
  target mRNA inhibition: 16%

## ATCACCTTCCGCCGCC (sugars k3 d10 k3, PS)
  target mRNA inhibition: 15%

## ATCACCTTCGGTTTAA (sugars k3 d10 k3, PS)
  target mRNA inhibition: 40%

## ATCCACTTCTGTGTAG (sugars k3 d10 k3, PS)
  target mRNA inhibition: 38%

## ATCCACTTGATCCCAA (sugars k3 d10 k3, PS)
  target mRNA inhibition: 16%

## ATCCCAACCGTAACAG (sugars k3 d10 k3, PS)
  target mRNA inhibition: 13%

## ATCCCTTTACACCTCA (sugars k3 d10 k3, PS)
  target mRNA inhibition: 36%

## ATCTGCGGCCCCCCAG (sugars k3 d10 k3, PS)
  target mRNA inhibition: -8%

## ATGAGTATAAGCCTGA (sugars k3 d10 k3, PS)
  target mRNA inhibition: 55%

## ATGCACTGGTACACCC (sugars k3 d10 k3, PS)
  target mRNA inhibition: 24%

## ATGCTACTCTTCTAAG (sugars k3 d10 k3, PS)
  target mRNA inhibition: 40%

## ATGCTAGTCCTCAGGA (sugars k3 d10 k3, PS)
  target mRNA inhibition: -20%

## ATGGAAAGCGAGTTCA (sugars k3 d10 k3, PS)
  target mRNA inhibition: 14%

## ATGGCTTTGTCTCCGA (sugars k3 d10 k3, PS)
  target mRNA inhibition: 15%

## ATTAAATTGATGGGCT (sugars k3 d10 k3, PS)
  target mRNA inhibition: 20%

## ATTAATGCTAGTCCTC (sugars k3 d10 k3, PS)
  target mRNA inhibition: 36%

## ATTACACCAGTCCTTT (sugars k3 d10 k3, PS)
  target mRNA inhibition: 40%

## ATTACGCAACTGAGCC (sugars k3 d10 k3, PS)
  target mRNA inhibition: 16%

## ATTCAAGCTGAACTAT (sugars k3 d10 k3, PS)
  target mRNA inhibition: 10%

## ATTCACCAAGGAGCTG (sugars k3 d10 k3, PS)
  target mRNA inhibition: 39%

## ATTCTAGACAGACCTA (sugars k3 d10 k3, PS)
  target mRNA inhibition: 33%

## ATTGGTAGCTTTCATT (sugars k3 d10 k3, PS)
  target mRNA inhibition: 70% and 83%

## ATTGGTTACCAATAAT (sugars k3 d10 k3, PS)
  target mRNA inhibition: 4%

## ATTGTAGTTAATGTCA (sugars k3 d10 k3, PS)
  target mRNA inhibition: 50%

## ATTTATTTCGGCTTCT (sugars k3 d10 k3, PS)
  target mRNA inhibition: 71% and 90%

## ATTTGAACCCCGTCCT (sugars k3 d10 k3, PS)
  target mRNA inhibition: 31%

## ATTTTAAAAAGGCTCG (sugars k3 d10 k3, PS)
  target mRNA inhibition: 27%

## CAAAAAGTAGTTCTTC (sugars k3 d10 k3, PS)
  target mRNA inhibition: -18%

## CAAAAGCCCTCTCAGC (sugars k3 d10 k3, PS)
  target mRNA inhibition: -14%

## CAAAATCCTGAATGGC (sugars k3 d10 k3, PS)
  target mRNA inhibition: 10%

## CAAAATGGCGGACTTT (sugars k3 d10 k3, PS)
  target mRNA inhibition: 17%

## CAAACTAAGCTACTAT (sugars k3 d10 k3, PS)
  target mRNA inhibition: 15%

## CAAACTGCTTACAGAT (sugars k3 d10 k3, PS)
  target mRNA inhibition: 31%

## CAAATTGCACTCGCTC (sugars k3 d10 k3, PS)
  target mRNA inhibition: 34%

## CAACAAGTAAGCCCCA (sugars k3 d10 k3, PS)
  target mRNA inhibition: 0%

## CAACAATCACTACTCC (sugars k3 d10 k3, PS)
  target mRNA inhibition: 16%

## CAACATATTGCCGACC (sugars k3 d10 k3, PS)
  target mRNA inhibition: -26%

## CAACTAAGCGAATGGC (sugars k3 d10 k3, PS)
  target mRNA inhibition: 24%

## CAACTGGGAATACTCT (sugars k3 d10 k3, PS)
  target mRNA inhibition: 20%

## CAACTTGGAAGTTGAT (sugars k3 d10 k3, PS)
  target mRNA inhibition: 10%

## CAAGATTGCCCCAACA (sugars k3 d10 k3, PS)
  target mRNA inhibition: 12%

## CAAGCATTCCTTCGGA (sugars k3 d10 k3, PS)
  target mRNA inhibition: 25%

## CAAGGCACTGATCACT (sugars k3 d10 k3, PS)
  target mRNA inhibition: 48%

## CAAGTTAAACTTATCT (sugars k3 d10 k3, PS)
  target mRNA inhibition: 16%

## CAATCAAGTCAAGCTC (sugars k3 d10 k3, PS)
  target mRNA inhibition: 3%

## CAATGCACTAAAGATC (sugars k3 d10 k3, PS)
  target mRNA inhibition: 10%

## CAATGCCTACCGCACA (sugars k3 d10 k3, PS)
  target mRNA inhibition: 16%

## CAATTTACATCACAAC (sugars k3 d10 k3, PS)
  target mRNA inhibition: 45%

## CACAAAACCCCCGGAA (sugars k3 d10 k3, PS)
  target mRNA inhibition: 19%

## CACAAGGATCCAAGCT (sugars k3 d10 k3, PS)
  target mRNA inhibition: 18%

## CACCAAAGACCTCGAC (sugars k3 d10 k3, PS)
  target mRNA inhibition: 18%

## CACCAAATTGCACTCG (sugars k3 d10 k3, PS)
  target mRNA inhibition: 54% and 73%

## CACCACCTGGAATGGC (sugars k3 d10 k3, PS)
  target mRNA inhibition: 8%

## CACCCGGAAATCGGCC (sugars k3 d10 k3, PS)
  target mRNA inhibition: -1%

## CACGGGCTGTCTGCTT (sugars k3 d10 k3, PS)
  target mRNA inhibition: 18%

## CACTGATCACTTTAGA (sugars k3 d10 k3, PS)
  target mRNA inhibition: 41%

## CACTGCCAACTAATTG (sugars k3 d10 k3, PS)
  target mRNA inhibition: 39%

## CACTGGTACACCCAGT (sugars k3 d10 k3, PS)
  target mRNA inhibition: 15%

## CAGAAAAAGCTTGTTC (sugars k3 d10 k3, PS)
  target mRNA inhibition: 37%

## CAGATGCAAGTTAAAC (sugars k3 d10 k3, PS)
  target mRNA inhibition: 40%

## CAGCGGTACACTCCTT (sugars k3 d10 k3, PS)
  target mRNA inhibition: 36%

## CAGCTCGGGCGAGGCG (sugars k3 d10 k3, PS)
  target mRNA inhibition: 13%

## CAGGCTGGTTATGACT (sugars k3 d10 k3, PS)
  target mRNA inhibition: 26%

## CAGGGCTTTACTTTCC (sugars k3 d10 k3, PS)
  target mRNA inhibition: 2%

## CAGTAGGCCAGACCAA (sugars k3 d10 k3, PS)
  target mRNA inhibition: 14%

## CAGTTACACATCCAAA (sugars k3 d10 k3, PS)
  target mRNA inhibition: 45%

## CAGTTACTCCAGCATA (sugars k3 d10 k3, PS)
  target mRNA inhibition: 24%

## CATAAGTAAGTTCCAG (sugars k3 d10 k3, PS)
  target mRNA inhibition: 49%

## CATACAAACTGCTTAC (sugars k3 d10 k3, PS)
  target mRNA inhibition: 29%

## CATACCTTAACATCTT (sugars k3 d10 k3, PS)
  target mRNA inhibition: 32%

## CATATTTTAAACGGGT (sugars k3 d10 k3, PS)
  target mRNA inhibition: -16%

## CATATTTTGCCCCCAC (sugars k3 d10 k3, PS)
  target mRNA inhibition: 15%

## CATCACCGGAATTCGA (sugars k3 d10 k3, PS)
  target mRNA inhibition: 2%

## CATCAGTAGTAAGAAT (sugars k3 d10 k3, PS)
  target mRNA inhibition: 14%

## CATCCAAACTCTACAT (sugars k3 d10 k3, PS)
  target mRNA inhibition: 23%

## CATGGATTTCAAGGTC (sugars k3 d10 k3, PS)
  target mRNA inhibition: 11%

## CATTACAGTTCTTGAA (sugars k3 d10 k3, PS)
  target mRNA inhibition: 41%

## CATTACGCAACTGAGC (sugars k3 d10 k3, PS)
  target mRNA inhibition: -1%

## CATTCAAGCTGAACTA (sugars k3 d10 k3, PS)
  target mRNA inhibition: 39%

## CATTCCTTCGGATGCT (sugars k3 d10 k3, PS)
  target mRNA inhibition: 38%

## CATTGCCTCTTCATTG (sugars k3 d10 k3, PS)
  target mRNA inhibition: 36%

## CATTGGCACACAGCAC (sugars k3 d10 k3, PS)
  target mRNA inhibition: 21%

## CATTGGGAGTTACTTG (sugars k3 d10 k3, PS)
  target mRNA inhibition: 32%

## CCAAAAGCCTTCTGCC (sugars k3 d10 k3, PS)
  target mRNA inhibition: 34%

## CCAACCGTAACAGGCC (sugars k3 d10 k3, PS)
  target mRNA inhibition: 27%

## CCAAGATTGCCCCAAC (sugars k3 d10 k3, PS)
  target mRNA inhibition: 14%

## CCACCCTCTAAGAGAC (sugars k3 d10 k3, PS)
  target mRNA inhibition: -17%

## CCACTCTTGGAAAACG (sugars k3 d10 k3, PS)
  target mRNA inhibition: 23%

## CCACTTGATCCCAACT (sugars k3 d10 k3, PS)
  target mRNA inhibition: 47%

## CCCACAGGAACAAGTC (sugars k3 d10 k3, PS)
  target mRNA inhibition: 14%

## CCCACGGCCCGCACGG (sugars k3 d10 k3, PS)
  target mRNA inhibition: 14%

## CCCATAACTGATCTGA (sugars k3 d10 k3, PS)
  target mRNA inhibition: 42%

## CCCATTATATTAGAAA (sugars k3 d10 k3, PS)
  target mRNA inhibition: 10%

## CCCCAAAAGCTCTATA (sugars k3 d10 k3, PS)
  target mRNA inhibition: 8%

## CCCCAAGACCAAACTG (sugars k3 d10 k3, PS)
  target mRNA inhibition: -9%

## CCCCAATGGAGGTATG (sugars k3 d10 k3, PS)
  target mRNA inhibition: 37%
